Laboratory results: ChEMBL document CHEMBL1671733, “Clinical evaluation of a dried blood spot assay for atazanavir” (Antimicrob Agents Chemother, 2010)

What was measured:
Format in all cases: ADME, organism-based
[1] = Cmax in HIV infected patient at 400 mg qd measured after 13.06 hrs by plasma based assay using HPLC; parameters: dose 400 mg; settings: human
[2] = Plasma concentration in HIV infected patient at 400 mg qd measured after 13.06 hrs by plasma based assay using HPLC; settings: human
Homo sapiens [3] = species on record: Homo sapiens; experiment: Plasma concentration in HIV infected patient with HIV RNA of >50 copies/ml by dried blood spot assay using reversed-phase ultrahigh-performance liquid chromatography; settings: in vivo
Homo sapiens [4] = species on record: Homo sapiens; experiment: Plasma concentration in HIV infected patient with HIV RNA of <50 copies/ml by dried blood spot assay using reversed-phase ultrahigh-performance liquid chromatography; settings: in vivo
[5] = Cmin in HIV infected patient at 400 mg qd measured after 13.06 hrs by plasma based assay using HPLC; settings: human, read-out: Cmin
[6] = Plasma concentration in HIV infected patient at 300 mg qd measured after 16.60 hrs by plasma based assay using HPLC; settings: human
[7] = Cmin in HIV infected patient at 300 mg qd measured after 16.60 hrs by plasma based assay using HPLC; settings: human, read-out: Cmin
[8] = Cmax in HIV infected patient at 300 mg qd measured after 16.60 hrs by plasma based assay using HPLC; parameters: dose 300 mg; settings: human

Q: With COC(=O)N[C@H](C(=O)N[C@@H](Cc1ccccc1)[C@@H](O)CN(Cc1ccc(-c2ccccn2)cc1)NC(=O)[C@@H](NC(=O)OC)C(C)(C)C)C(C)(C)C [ATAZANAVIR] as the compound, how does the Cmax [1] read?
A: 787 ng/mL

Q: What about the concentration at 13.06 h [2] of the same compound?
A: 465 ng/mL

Q: What about the Cp (Homo sapiens [3]) of the same compound?
A: 543 ng/mL

Q: What about the Cp (Homo sapiens [4]) of the same compound?
A: 1582 ng/mL

Q: What about the concentration at 13.06 h [5] of the same compound?
A: 342 ng/mL

Q: And the concentration at 16.6 h [6]?
A: 1630 ng/mL

Q: What about the concentration at 16.6 h [7] of the same compound?
A: 196 ng/mL

Q: What about the Cmax [8] of the same compound?
A: 7220 ng/mL
